Assay results reported in patent publication US20120225093A1, “Abrogating HIV-1 Infection via Drug-Induced Reactivation of Apoptosis” (UNIVERSITY OF MEDICINE AND DENTISTRY OF NEW JERSEY, priority 2010, published 2012).

Tests used:
HIV-1 LTR = test: RNase protection assay of pLTR-FF transcripts (elongation, RNA stability); type: cell-based
Method: RPA was performed with 10 μg of cytoplasmic RNA and 5 μg of nuclear RNA, using the RPAIII kit from Ambion (Austin, Tex.) according to the manufacturer's instructions. Synthesis of radiolabeled RNA and protection assays were performed as described in Young et al. Mol Cell Biol 2003, 23:6373-6384. To generate antisense RNA probe against the HIV-1 major splice site, firefly luciferase and Renilla luciferase pBSII-KS+HIV (+80-341), pSP-luc and pSP-rluc were linearized with HindIII, XbaI and BsaI, respectively. The resulting probes were 309, 390 and 245 nt long, respectively. […]
Results of the deletion analysis implied that sensitivity to the drugs is conferred by the promoter or another feature in the HIV-1 LTR. […] Nuclear and cytoplasmic RNA was analyzed in RNase protection assays using a probe complementary to the promoter-proximal region of HIV transcripts (FIG. 6A). […]
To examine the possibility that the drugs decrease the stability of RNA transcribed from the HIV promoter, cells transfected with pLTR-FF were incubated in the presence or absence of CPX. Actinomycin D was added to some cultures 12 hr later to block further transcription, and FF RNA was monitored by RPA at intervals thereafter (FIG. 6D, top panel). FF RNA levels were quantified and normalized to the levels at 12 hr (FIG. 6D, bottom panel). […]

[1] = in vivo; cited from earlier work
uninfected PBMCs = test: TUNEL apoptosis in uninfected PBMC cultures; type: cell-based, human; conditions: CPX 30 μM
Method: Uninfected PBMCs were co-incubated with infected PBMC stock in 24-well microplates at 2 ml/well Medium B, at a 10:1 ratio of uninfected-to-infected cells, and a total cell number of 1×10^6. Cultures were maintained and assayed for 6 consecutive days. CPX or Agent P2 was added at the time of inoculation or 12 hr later. Leaving the cell layer undisturbed, half the medium in each well was replenished every day, with concurrent adjustment of compound concentration. On each day during the 6-day experiments, a set of wells was harvested: the cells were processed for determination of viability and apoptosis, and the cell-free supernatants were stored at −80° C. for p24 and viral RNA measurements. […]
The potential across the mitochondrial membrane of live cells was determined flow-cytometrically with the lipophilic cationic fluorochrome JC-1 (5,5′,6,6′-tetrachloro-1,1′,3,3′-tetraethylbenzimidazolcarbocyanine iodide) immediately after sample harvest (BD™ Mitoscreen Kit, BD Biosciences; San Diego, Calif.). DNA fragmentation was quantified flow-cytometrically, using a TUNEL (terminal deoxynucleotide transferase dUTP nick end-labeling) assay (APO-BRDU™; Phoenix Flow Systems; San Diego, Calif.) and a dual-color assay for annexin V binding and 7-AAD exclusion (Annexin V-PE 7-AAD Apoptosis Detection Kit I™; BD Biosciences Pharmingen, San Jose, Calif.). […]

## Cc1cc(C2CCCCC2)n(O)c(=O)c1 [CPX, 6-cyclohexyl-1-hydroxy-4-methylpyridin-2[1H]-one]
HIV-1 LTR; actinomycin D added at 12 hr
  rate of FF RNA decay: not affected
HIV-1 LTR; in the presence of CPX
  FF mRNA level at 12 hr post-transfection, less than control: ~50%
[1]
  tolerability: well tolerated
Uninfected PBMCs; 144 hr
  apoptotic (TUNEL-positive) cells: 24.1% (±3.2%)
Uninfected PBMCs; uninfected cultures
  change in proportion of TUNEL-positive PBMCs: roughly doubled
